Results from US12115152B2, “Pan-RAF kinase inhibitor and use thereof” (HEFEI INSTITUTES OF PHYSICAL SCIENCE, CHINESE ACADEMY OF …, priority 2019, dated 2024).
Several values for one entry are separate records, joined by “and”; a condition that tells them apart may be missing. Equal entries are not always repeated. Where two headings read alike, the source gives them in different places.

Test: Pharmacokinetic parameters in rats
Assay type: in vivo, SD rats
Conditions: rat
Experimental: In the example, SD rats (180-220 g, male) (purchased from Experimental Animal Center of Anhui Medical University, China) were used. The animals were kept in cages ventilated independently with 6 rats per cage. The feeding was performed at a temperature of 20˜26° C. and a humidity of 35-75%. The light condition was 12 hours of lighting/12 hours of darkness. The corncob bedding was refreshed once a week. The rats were fed with foods and drinking water on an ad libitum basis. The rats were marked with a number on the tails. During the experiment, the breeding and use of animals strictly follow the regulations of Association for Assessment and Accreditation of Laboratory Animal Care International.
Solutions of Compound 16 and Comparative Compound 1 were prepared as follows. 10 mg of the compound to be tested was precisely weighed into a sterile vial, and was dissolved with a small amount of DMSO, and then was made to a constant volume of 5 ml with 5% glucose solution, to give a gavage test solution at a concentration of 2 mg/mL. 0.5 ml of the above gavage test solution at a concentration of 2 mg/mL was precisely taken, and was made to constant volume of 5 ml with 4.5 ml of 5% glucose solution, to give an intravenous injection test solution at a concentration of 0.2 mg/mL. The solution was prepared immediately before being used in the experiment.
6 SD rats were randomly divided into two groups, and the synthesized compounds were administered by gavage and tail vein injection, respectively. About 0.3 mL of blood samples were collected from the retro-orbital venous plexus at 0 h before administration and at 5 min, 15 min, 30 min, 1 h, 1.5 h, 2 h, 4 h, 6 h, 9 h, 12 h, 24 h after administration for the gavage group; and at 0 h before administration and at 2 min, 5 min, 15 min, 30 min, 1 h, 2 h, 4 h, 6 h, 9 h, and 12 h after administration for the tail vein group. Each of the collected blood samples was put in a 1.5 mL centrifuge tube with heparin (Sigma, USA). The sample was centrifuged at 6000 rpm for 3 min to separate the plasma. 100 μL of plasma in the upper layer was placed into a new 1.5 mL centrifuge tube, and stored at −80° C. for determination. 10 mg of a standard for the compound to be tested was precisely weighed into a 10 mL volumetric flask, and was dissolved by adding methanol to make a constant volume and mixed uniformly, to give a 1 mg/mL stock solution. The stock solution was then diluted gradually with methanol to give a series of working solutions at concentrations of 0.01, 0.02, 0.05, 0.1, 0.2, 0.5, 1, 2, 5, 10, 20 μg/mL. The working solutions were placed in a refrigerator at 4° C. for later use. 11 centrifuge tubes were used. 10 μL of the above working solutions was respectively added to each of the centrifuge tubes, and then 90 μL of blank rat plasma was respectively added therein. The mixtures were mixed uniformly, so that the concentration of the compound in the rat plasma was 1, 2, 5, 10, 20, 50, 100, 200, 500, 1000, 2000 ng/mL. Then, 20 μL of a solution of caffeine as the internal standard (200 ng/mL) (National Institutes for Food and Drug Control, China) was added therein, and the resultant mixtures were vortexed for 10 s. Next, 400 μL of methanol was added. The resultant mixtures were vortexed for 10 min, and centrifuged at 16000 rpm for 5 min. Thereafter, 70 μL of the supernatant was placed into the inserted pipe of a sampling bottle. 5 μL of the sample was introduced for a LC-MS/MS analysis. A standard curve of the compound in the rat plasma was obtained by means of a linear regression performed by taking the ratio of the peak area of the sample to that of the internal standard As/Ais as the vertical ordinate, taking the concentration C (μg/mL) as the horizontal ordinate, and taking 1/C^2 was taken as a weighting coefficient.
To 100 μL of the rat plasma to be tested stored at −80° C., 20 μL of a caffeine solution (200 ng/mL) as the internal standard was added. The resultant mixture was vortexed for 10 s. […]

[1] = male, Sprague-Dawley, plasma, iv, 1 mg/kg, intravenous injection 1 mg/kg, average n=3
[2] = male, Sprague-Dawley, plasma, iv, 1 mg/kg, intravenous injection 1 mg/kg, individual rats #1-#3
[3] = intravenous injection 1 mg/kg, average n=3
[4] = intravenous injection 1 mg/kg, individual rats #1-#3, 1 mg/kg
[5] = oral administration (gavage) 10 mg/kg, average n=3
[6] = oral administration (gavage) 10 mg/kg, individual rats #1-#3, 10 mg/kg

Cc1ccc(NC(=O)c2cccc(C(F)(F)F)c2)cc1-n1cc(-c2cncc(N3CCOCC3)c2)cn1 [Example 16, N-(4-methyl-3-(4-(5-morpholinopyrid-3-yl)-1H-pyrazol-1-yl)phenyl)-3-(trifluoromethyl)benzamide]
AUC(0-inf) (male, SD, plasma, po, 10 mg/kg, oral administration (gavage) 10 mg/kg, average n=3): 11000 ng·h/mL
Tmax (male, SD, plasma, po, 10 mg/kg, oral administration (gavage) 10 mg/kg, average n=3, read-out: Tmax): 0.67 h
half-life (male, SD, plasma, po, 10 mg/kg, oral administration (gavage) 10 mg/kg, average n=3, read-out: T½ (converted)): 3.02 h
AUC(0-inf) (male, SD, plasma, po, 10 mg/kg, oral administration (gavage) 10 mg/kg, individual rats #1-#3): 13500 ng·h/mL
AUC0-t (male, SD, plasma, po, 10 mg/kg, oral administration (gavage) 10 mg/kg, individual rats #1-#3, read-out: AUC0-t): 13400 ng·h/mL
Tmax (male, SD, plasma, po, 10 mg/kg, oral administration (gavage) 10 mg/kg, individual rats #1-#3, read-out: Tmax): 0.5 h
half-life (male, SD, plasma, po, 10 mg/kg, oral administration (gavage) 10 mg/kg, individual rats #1-#3, read-out: T½ (converted)): 3.19 h
AUC(0-inf) [1]: 765 ng·h/mL
clearance [1]: 21.9 mL/min/kg
AUC0-t (male, Sprague-Dawley, plasma, iv, 1 mg/kg, intravenous injection 1 mg/kg, average n=3, read-out: AUC0-t): 742 ng·h/mL
C0 (male, Sprague-Dawley, plasma, iv, 1 mg/kg, intravenous injection 1 mg/kg, average n=3, read-out: C0): 1120 ng/mL
Cmax (male, Sprague-Dawley, plasma, iv, 1 mg/kg, intravenous injection 1 mg/kg, average n=3, read-out: Cmax): 914 ng/mL
MRT last (male, Sprague-Dawley, plasma, iv, 1 mg/kg, intravenous injection 1 mg/kg, average n=3, read-out: MRT0-t): 1.89 h
MRT inf (male, Sprague-Dawley, plasma, iv, 1 mg/kg, intravenous injection 1 mg/kg, average n=3, read-out: MRT0-∞): 2.33 h
Tmax (male, Sprague-Dawley, plasma, iv, 1 mg/kg, intravenous injection 1 mg/kg, average n=3, read-out: Tmax): 0.033 h
half-life (male, Sprague-Dawley, plasma, iv, 1 mg/kg, intravenous injection 1 mg/kg, average n=3, read-out: T½ (converted)): 3.01 h
Vd (male, Sprague-Dawley, plasma, iv, 1 mg/kg, intravenous injection 1 mg/kg, average n=3, read-out: Vz): 5.66 L/kg
AUC(0-inf) [2]: 861 ng·h/mL
clearance [2]: 19.4 mL/min/kg
AUC0-t (male, Sprague-Dawley, plasma, iv, 1 mg/kg, intravenous injection 1 mg/kg, individual rats #1-#3, read-out: AUC0-t): 822 ng·h/mL
C0 (male, Sprague-Dawley, plasma, iv, 1 mg/kg, intravenous injection 1 mg/kg, individual rats #1-#3, read-out: C0): 1310 ng/mL
Cmax (male, Sprague-Dawley, plasma, iv, 1 mg/kg, intravenous injection 1 mg/kg, individual rats #1-#3, read-out: Cmax): 1020 ng/mL
MRT last (male, Sprague-Dawley, plasma, iv, 1 mg/kg, intravenous injection 1 mg/kg, individual rats #1-#3, read-out: MRT0-t): 2.08 h
MRT inf (male, Sprague-Dawley, plasma, iv, 1 mg/kg, intravenous injection 1 mg/kg, individual rats #1-#3, read-out: MRT0-∞): 2.75 h
Tmax (male, Sprague-Dawley, plasma, iv, 1 mg/kg, intravenous injection 1 mg/kg, individual rats #1-#3, read-out: Tmax): 0.033 h
half-life (male, Sprague-Dawley, plasma, iv, 1 mg/kg, intravenous injection 1 mg/kg, individual rats #1-#3, read-out: T½ (converted)): 3.59 h
Vd (male, Sprague-Dawley, plasma, iv, 1 mg/kg, intravenous injection 1 mg/kg, individual rats #1-#3, read-out: Vz): 6.01 L/kg
bioavailability (male, Sprague-Dawley, plasma, oral, 10 mg/kg, oral administration (gavage) 10 mg/kg vs intravenous 1 mg/kg, average n=3, read-out: F (oral bioavailability)): 144%
AUC0-t (male, Sprague-Dawley, plasma, po, 10 mg/kg, oral administration (gavage) 10 mg/kg, average n=3, read-out: AUC0-t): 10900 ng·h/mL
Cmax (male, Sprague-Dawley, plasma, po, 10 mg/kg, oral administration (gavage) 10 mg/kg, average n=3, read-out: Cmax): 1480 ng/mL
MRT last (male, Sprague-Dawley, plasma, po, 10 mg/kg, oral administration (gavage) 10 mg/kg, average n=3, read-out: MRT0-t): 6.62 h
MRT inf (male, Sprague-Dawley, plasma, po, 10 mg/kg, oral administration (gavage) 10 mg/kg, average n=3, read-out: MRT0-∞): 6.81 h
MRT last (male, Sprague-Dawley, plasma, po, 10 mg/kg, oral administration (gavage) 10 mg/kg, individual rats #1-#3, read-out: MRT0-t): 5.99 h
MRT inf (male, Sprague-Dawley, plasma, po, 10 mg/kg, oral administration (gavage) 10 mg/kg, individual rats #1-#3, read-out: MRT0-∞): 6.19 h
AUMC0-t [3]: 1413 hr*hr*ng/ml
AUMC0-∞ [3]: 1805 hr*hr*ng/ml
AUC0-t [4]: 680 ng·h/mL and 723 ng·h/mL
AUC0-∞ [4]: 694 ng·h/mL and 742 ng·h/mL
AUMC0-t [4]: 1708 hr*hr*ng/ml and 1207 hr*hr*ng/ml and 1326 hr*hr*ng/ml
AUMC0-∞ [4]: 2368 hr*hr*ng/ml and 1418 hr*hr*ng/ml and 1630 hr*hr*ng/ml
C0 [4]: 933 ng/mL and 1116 ng/mL
Cl [4]: 24.03 mL/min/kg and 22.47 mL/min/kg
Cmax [4]: 796 ng/mL and 925 ng/mL
MRT0-t [4]: 1.77 h and 1.83 h
MRT0-∞ [4]: 2.04 h and 2.20 h
T½ [4]: 2.62 h and 2.84 h
Vz [4]: 5.441 L/kg and 5.521 L/kg
F (oral bioavailability) (oral administration (gavage) 10 mg/kg vs intravenous 1 mg/kg, individual rats #1-#3): 176.1% and 157.7% and 98.3%
AUMC0-t [5]: 70219 hr*hr*ng/ml
AUMC0-∞ [5]: 72777 hr*hr*ng/ml
Cl [5]: 16.1 mL/min/kg
Vz [5]: 4.204 L/kg
AUC0-t [6]: 11999 ng·h/mL and 7435 ng·h/mL
AUC0-∞ [6]: 12067 ng·h/mL and 7520 ng·h/mL
AUMC0-t [6]: 80004 hr*hr*ng/ml and 72172 hr*hr*ng/ml and 58480 hr*hr*ng/ml
AUMC0-∞ [6]: 83364 hr*hr*ng/ml and 74076 hr*hr*ng/ml and 60891 hr*hr*ng/ml
Cl [6]: 12.4 mL/min/kg and 13.8 mL/min/kg and 22.17 mL/min/kg
Cmax [6]: 2090 ng/mL and 1710 ng/mL and 645 ng/mL
MRT0-t [6]: 6.01 h and 7.87 h
MRT0-∞ [6]: 6.14 h and 8.10 h
Tmax [6]: 1 h
T½ [6]: 2.86 h and 3.01 h
Vz [6]: 3.418 L/kg and 3.42 L/kg and 5.773 L/kg
